Biological target: ROCK2 (Homo sapiens (Human), UniProt O75116)
Assay: Rho Kinase Inhibition Assay (IMAP fluorescence polarization)
Type: biochemical
Conditions: isolated enzyme, 10 μM ATP, 60 minutes at room temperature
Procedure: Following the preincubation, 10 μM ATP was added to initiate the reaction. After 60 minutes at room temperature, Molecular Devices IMAP™ binding solution was added to bind phosphorylated substrate. After 30 minutes of incubation in the presence of the IMAP™ beads the fluorescence polarization was read and the ratio was reported as mP. IC50 results were calculated using the Prism software from Graphpad.
See Tian et al., Arch. Ophthalmol. […] Ophthalmol. Vis. […] Ophthalmol. […] Cytoskel. […] Ophthalmol. Vis. […] Ophthalmol. Vis.

Sequence of ROCK2 (O75116 11-552): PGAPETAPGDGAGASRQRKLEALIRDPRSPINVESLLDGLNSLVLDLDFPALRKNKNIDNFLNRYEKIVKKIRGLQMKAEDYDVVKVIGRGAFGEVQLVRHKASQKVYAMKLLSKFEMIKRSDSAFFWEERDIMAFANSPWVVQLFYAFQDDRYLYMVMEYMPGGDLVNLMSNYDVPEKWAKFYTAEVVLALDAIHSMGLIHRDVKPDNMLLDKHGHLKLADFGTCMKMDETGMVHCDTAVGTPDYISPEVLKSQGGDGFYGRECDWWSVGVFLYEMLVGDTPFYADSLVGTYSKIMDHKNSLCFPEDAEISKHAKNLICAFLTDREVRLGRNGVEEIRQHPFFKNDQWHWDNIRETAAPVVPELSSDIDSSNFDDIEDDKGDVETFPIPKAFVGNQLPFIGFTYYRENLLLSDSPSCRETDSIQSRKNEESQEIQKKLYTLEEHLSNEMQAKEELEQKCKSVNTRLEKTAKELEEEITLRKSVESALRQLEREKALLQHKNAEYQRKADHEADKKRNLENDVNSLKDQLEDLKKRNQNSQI

OCCOc1ccc(CN2CCCC(Nc3ccc4[nH]ncc4c3)C2)cc1 (centres unmarked) [Compound 1.018, 2-(4-((3-(1H-indazol-5-ylamino)piperidin-1-yl)methyl)phenoxy)ethanol]
IC50: 2410 nM

CN(C)c1ccc(CN2CCCC(Nc3ccc4[nH]ncc4c3)C2)cc1 (centres unmarked) [Compound 1.032, N-(1-(4-(dimethylamino)benzyl)piperidin-3-yl)-1H-indazol-5-amine]
IC50: 1940 nM

CC(=O)Nc1ccc(CN2CCCC(Nc3cccc4cnccc34)C2)cc1 (centres unmarked) [Compound 2.004, N-(4-((3-(isoquinolin-5-ylamino)piperidin-1-yl)methyl)phenyl)acetamide]
IC50: 3710 nM

CS(=O)(=O)Nc1cccc(CN2CCCC(Nc3ccc4[nH]ncc4c3)C2)c1 (centres unmarked) [Compound 1.051, N-(3-((3-(1H-indazol-5-ylamino)piperidin-1-yl)methyl)phenyl)methanesulfonamide]
IC50: 62.6 nM

CC(C)Oc1ccc(CN2CCCC(Nc3ccc4[nH]ncc4c3)C2)cc1 (centres unmarked) [Compound 1.015, N-(1-(4-isopropoxybenzyl)piperidin-3-yl)-1H-indazol-5-amine]
IC50: 9980 nM

NCc1ccc(CN2CCCC(Nc3ccc4[nH]ncc4c3)C2)cc1 (centres unmarked) [Compound 1.035, N-(1-(4-(aminomethyl)benzyl)piperidin-3-yl)-1H-indazol-5-amine]
IC50: 208 nM

Fc1ccc(CN2CCC[C@@H](Nc3ccc4[nH]ncc4c3)C2)cc1F [Compound 1.073, (R)-N-(1-(3,4-difluorobenzyl)piperidin-3-yl)-1H-indazol-5-amine]
IC50: 111 nM

OCCC#Cc1ccc(CN2CCCC(Nc3ccc4[nH]ncc4c3)C2)cc1 (centres unmarked) [Compound 1.043, 4-(4-((3-(1H-indazol-5-ylamino)piperidin-1-yl)methyl)phenyl)but-3-yn-1-ol]
IC50: 11700 nM

C=Cc1ccc(CN2CCCC(Nc3ccc4[nH]ncc4c3)C2)cc1 (centres unmarked) [Compound 1.037, N-(1-(4-vinylbenzyl)piperidin-3-yl)-1H-indazol-5-amine]
IC50: 69.5 nM

Clc1ccc(CN2CCC(Nc3cccc4cnccc34)C2)cc1Cl (centres unmarked) [Compound 2.016, N-(1-(3,4-dichlorobenzyl)pyrrolidin-3-yl)isoquinolin-5-amine]
IC50: 716 nM

CSc1cccc(CN2CCCC(Nc3ccc4[nH]ncc4c3)C2)c1 (centres unmarked) [Compound 1.040, N-(1-(3-(methylthio)benzyl)piperidin-3-yl)-1H-indazol-5-amine]
IC50: 144 nM

CS(=O)(=O)Nc1cccc(CN2CC[C@@H](Nc3ccc4[nH]ncc4c3)C2)c1 [Compound 1.097, (R)-N-(3-((3-(1H-indazol-5-ylamino)pyrrolidin-1-yl)methyl)phenyl)methanesulfonamide]
IC50: 276 nM

CSc1ccc(CN2CCC[C@@H](Nc3ccc4[nH]ncc4c3)C2)cc1 [Compound 1.074, (R)-N-(1-(4-(methylthio)benzyl)piperidin-3-yl)-1H-indazol-5-amine]
IC50: 71.6 nM

C#Cc1ccc(CN2CC[C@@H](Nc3cccc4cnccc34)C2)cc1 [Compound 2.031, (R)-N-(1-(4-ethynylbenzyl)pyrrolidin-3-yl)isoquinolin-5-amine]
IC50: 87.1 nM

COc1ccc(CN2CCC[C@H](Nc3ccc4[nH]ncc4c3)C2)cc1 [Compound 1.079, (S)-N-(1-(4-methoxybenzyl)piperidin-3-yl)-1H-indazol-5-amine]
IC50: 102 nM

Cc1ccc(CN2CCCC(Nc3ccc4[nH]ncc4c3)C2)cc1O (centres unmarked) [Compound 1.059, 5-((3-(1H-indazol-5-ylamino)piperidin-1-yl)methyl)-2-methylphenol]
IC50: 32 nM

CS(=O)(=O)Nc1cccc(CN2CCC[C@H](Nc3cccc4cnccc34)C2)c1 [Compound 2.037, (S)-N-(3-((3-(isoquinolin-5-ylamino)piperidin-1-yl)methyl)phenyl)methanesulfonamide]
IC50: 3060 nM

C#Cc1ccc(CN2CCCC(Nc3ccc4[nH]ncc4c3)C2)cc1 (centres unmarked) [Compound 1.034, N-(1-(4-ethynylbenzyl)piperidin-3-yl)-1H-indazol-5-amine]
IC50: 69.1 nM

c1cc(CN2CCCC(Nc3cccc4cnccc34)C2)cc(C2CC2)c1 (centres unmarked) [Compound 2.011, N-(1-(3-cyclopropylbenzyl)piperidin-3-yl)isoquinolin-5-amine]
IC50: 4090 nM

OCCn1ccc2ccc(CN3CCC[C@H](Nc4ccc5[nH]ncc5c4)C3)cc21 [Compound 1.109, (S)-2-(6-((3-(1H-indazol-5-ylamino)piperidin-1-yl)methyl)-1H-indol-1-yl)ethanol]
IC50: 242 nM

COc1ccc(CN2CCC(Nc3cccc4cnccc34)C2)cc1 (centres unmarked) [Compound 2.017, N-(1-(4-methoxybenzyl)pyrrolidin-3-yl)isoquinolin-5-amine]
IC50: 322 nM

C[C@@H](O)COc1cccc(CN2CCC[C@@H](Nc3ccc4[nH]ncc4c3)C2)c1 [Compound 1.116, (R)-1-(3-(((R)-3-(1H-indazol-5-ylamino)piperidin-1-yl)methyl)phenoxy)propan-2-ol]
IC50: 862 nM

CSc1ccc(CN2CCCC(Nc3cccc4cnccc34)C2)cc1 (centres unmarked) [Compound 2.009, N-(1-(4-(methylthio)benzyl)piperidin-3-yl)isoquinolin-5-amine]
IC50: 368 nM

CS(=O)(=O)c1ccc(CN2CCC(Nc3ccc4[nH]ncc4c3)C2)cc1 (centres unmarked) [Compound 1.004, N-(1-(4-(methylsulfonyl)benzyl)pyrrolidin-3-yl)-1H-indazol-5-amine]
IC50: 254 nM

OC[C@@H](O)COc1cccc(CN2CCC[C@@H](Nc3ccc4[nH]ncc4c3)C2)c1 [Compound 1.115, (R)-3-(3-(((R)-3-(1H-indazol-5-ylamino)piperidin-1-yl)methyl)phenoxy)propane-1,2-diol]
IC50: 555 nM

OCCOc1cccc(CN2CCC[C@@H](Nc3cccc4cnccc34)C2)c1 [Compound 2.034, (R)-2-(3-((3-(isoquinolin-5-ylamino)piperidin-1-yl)methyl)phenoxy)ethanol]
IC50: 4010 nM

OCCOc1cccc(CN2CCC(Nc3ccc4[nH]ncc4c3)C2)c1 (centres unmarked) [Compound 1.088, 2-(3-((3-(1H-indazol-5-ylamino)pyrrolidin-1-yl)methyl)phenoxy)ethanol]
IC50: 651 nM

O=C(O)COc1cccc(CN2CC[C@@H](Nc3cccc4cnccc34)C2)c1 [Compound 2.044, (R)-2-(3-((3-(isoquinolin-5-ylamino)pyrrolidin-1-yl)methyl)phenoxy)acetic acid]
IC50: 433 nM

OCCN1CCc2ccc(CN3CCCC(Nc4ccc5[nH]ncc5c4)C3)cc21 (centres unmarked) [Compound 1.104, 2-(6-((3-(1H-indazol-5-ylamino)piperidin-1-yl)methyl)indolin-1-yl)ethanol]
IC50: 107 nM

c1ccc(CN2CCCC(Nc3ccc4[nH]ncc4c3)CC2)cc1 (centres unmarked) [Compound 1.031, N-(1-benzylazepan-4-yl)-1H-indazol-5-amine]
IC50: 1750 nM

C[C@@H](O)COc1cccc(CN2CCC[C@H](Nc3ccc4[nH]ncc4c3)C2)c1 [Compound 1.118, (R)-1-(3-(((S)-3-(1H-indazol-5-ylamino)piperidin-1-yl)methyl)phenoxy)propan-2-ol]
IC50: 1400 nM

CC(C)(C)OC(=O)NCc1ccc(CN2CCCC(Nc3ccc4[nH]ncc4c3)C2)cc1 (centres unmarked) [Compound 1.027, tert-butyl 4-((3-(1H-indazol-5-ylamino)piperidin-1-yl)methyl)benzylcarbamate]
IC50: 6600 nM

Cc1ccc(CN2CC[C@H](Nc3cccc4cnccc34)C2)cc1 [Compound 2.028, (S)-N-(1-(4-methylbenzyl)pyrrolidin-3-yl)isoquinolin-5-amine]
IC50: 789 nM

Cc1ccc(CN2CCCC(Nc3ccc4[nH]ncc4c3)C2)c(C)c1 (centres unmarked) [Compound 1.024, N-(1-(2,4-dimethylbenzyl)piperidin-3-yl)-1H-indazol-5-amine]
IC50: 107 nM

CS(=O)(=O)c1ccc(CN2CCC(Nc3cccc4cnccc34)C2)cc1 (centres unmarked) [Compound 2.005, N-(1-(4-(methylsulfonyl)benzyl)pyrrolidin-3-yl)isoquinolin-5-amine]
IC50: 1780 nM

CS(=O)(=O)Nc1cccc(CN2CC[C@@H](Nc3cccc4cnccc34)C2)c1 [Compound 2.038, (R)-N-(3-((3-(isoquinolin-5-ylamino)pyrrolidin-1-yl)methyl)phenyl)methanesulfonamide]
IC50: 112 nM

OCCOc1cccc(CN2CC[C@H](Nc3cccc4cnccc34)C2)c1 [Compound 2.032, (S)-2-(3-((3-(isoquinolin-5-ylamino)pyrrolidin-1-yl)methyl)phenoxy)ethanol]
IC50: 5330 nM

CS(=O)(=O)Cc1cccc(CN2CCCC(Nc3ccc4[nH]ncc4c3)C2)c1 (centres unmarked) [Compound 1.041, N-(1-(3-(methylsulfonylmethyl)benzyl)piperidin-3-yl)-1H-indazol-5-amine]
IC50: 137 nM

c1cc(SC2CC2)ccc1CN1CCCC(Nc2ccc3[nH]ncc3c2)C1 (centres unmarked) [Compound 1.026, N-(1-(4-(cyclopropylthio)benzyl)piperidin-3-yl)-1H-indazol-5-amine]
IC50: 2130 nM

NC(=O)Cn1ccc2cc(CN3CCCC(Nc4ccc5[nH]ncc5c4)C3)ccc21 (centres unmarked) [Compound 1.105, 2-(5-((3-(1H-indazol-5-ylamino)piperidin-1-yl)methyl)-1H-indol-1-yl)acetamide]
IC50: 172 nM

FC(F)(F)Oc1ccc(CN2CCCC(Nc3ccc4[nH]ncc4c3)C2)cc1 (centres unmarked) [Compound 1.022, N-(1-(4-(trifluoromethoxy)benzyl)piperidin-3-yl)-1H-indazol-5-amine]
IC50: 1610 nM

NC(=O)c1cccc(CN2CCCC(Nc3ccc4[nH]ncc4c3)C2)c1 (centres unmarked) [Compound 1.055, 3-((3-(1H-indazol-5-ylamino)piperidin-1-yl)methyl)benzamide]
IC50: 472 nM

CS(=O)(=O)Nc1cccc(CN2CC[C@H](Nc3cccc4cnccc34)C2)c1 [Compound 2.035, (S)-N-(3-((3-(isoquinolin-5-ylamino)pyrrolidin-1-yl)methyl)phenyl)methanesulfonamide]
IC50: 3240 nM

OCCOc1cccc(CN2CCC[C@@H](Nc3ccc4[nH]ncc4c3)C2)c1 [Compound 1.092, (R)-2-(3-((3-(1H-indazol-5-ylamino)piperidin-1-yl)methyl)phenoxy)ethanol]
IC50: 406 nM
